The record followed here is PubChem BioAssay AID192 (DTP/NCI, 2004).

“And” between values parts separate entries of the source, which are not always exact repeats. Equal entries are not always repeated. Toxic doses and inconclusive results are not listed.

This experiment has as its system BDF1 mice, B16 melanoma ip, median survival T/C. Nature of the experiment: NCI In Vivo Anticancer Drug Screen. Data for tumor model B16 Melanoma (intraperitoneal) in B6D2F1 (BDF1) mice. The following applies: endpoint: median survival time, higher = longer survival. The method, boiled down: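 In this screen, activity was judged from survival or tumor size in treated versus vehicle-treated tumor-bearing mice, reported as T/C.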

The mark [1] stands for this setting: dose: 3.12 mg/kg/injection, schedule: Q01DX009 (ip), vehicle: Klucel (hydroxypropylcellulose) (HPC).
Where [2] appears, read: dose: 12.5 mg/kg/injection, schedule: Q01DX009 (ip), vehicle: Klucel (hydroxypropylcellulose) (HPC).
[3] abbreviates: dose: 100.0 mg/kg/injection, schedule: Q01DX009 (ip), vehicle: Klucel (hydroxypropylcellulose) (HPC).
Where [4] appears, read: dose: 200.0 mg/kg/injection, schedule: Q01DX009 (ip), vehicle: Klucel (hydroxypropylcellulose) (HPC).
Where [5] appears, read: dose: 400.0 mg/kg/injection, schedule: Q01DX009 (ip), vehicle: Klucel (hydroxypropylcellulose) (HPC).
The mark [6] stands for this setting: dose: 100.0 mg/kg/injection, schedule: Q04DX003 (ip), vehicle: Klucel (hydroxypropylcellulose) (HPC).
Where [7] appears, read: dose: 200.0 mg/kg/injection, schedule: Q04DX003 (ip), vehicle: Klucel (hydroxypropylcellulose) (HPC).
The mark [8] stands for this setting: dose: 400.0 mg/kg/injection, schedule: Q04DX003 (ip), vehicle: Klucel (hydroxypropylcellulose) (HPC).
[9] abbreviates: dose: 1.56 mg/kg/injection, schedule: Q01DX009 (ip), vehicle: Klucel (hydroxypropylcellulose) (HPC).
Where [10] appears, read: dose: 6.25 mg/kg/injection, schedule: Q01DX009 (ip), vehicle: Klucel (hydroxypropylcellulose) (HPC).
The mark [11] stands for this setting: dose: 25.0 mg/kg/injection, schedule: Q01DX009 (ip), vehicle: saline with Tween-80.
Setting [12] is: dose: 50.0 mg/kg/injection, schedule: Q01DX009 (ip), vehicle: saline with Tween-80.
Setting [13] is: dose: 50.0 mg/kg/injection, schedule: Q01DX009 (ip), vehicle: saline.
[14] abbreviates: dose: 100.0 mg/kg/injection, schedule: Q01DX009 (ip), vehicle: saline.
The mark [15] stands for this setting: dose: 200.0 mg/kg/injection, schedule: Q01DX009 (ip), vehicle: saline.
Setting [16] is: dose: 12.5 mg/kg/injection, schedule: Q01DX009 (ip), vehicle: saline.

For `CC1=CC(=Nc2ccc(N(CCCl)CCCl)cc2)C=C(C)C1=O`, the T/C is 102 % of control and 110 % of control under setting [1]; 160 % of control under setting [2]; 160 % of control (dose: 25.0 mg/kg/injection, schedule: Q01DX009 (ip), vehicle: Klucel (hydroxypropylcellulose) (HPC)); 158 % of control under setting [3].

For `O=C(Nc1ccc(Br)cc1)c1ccc(Cl)c(Cl)c1`, the T/C is 118 % of control under setting [3], 114 % of control under setting [4] and 114 % of control under setting [5].

In the case of `C=C1C(=O)OC2CC1CCC1(C)OC1CCC(C)=CCCC2(C)O` (centres undefined), the T/C is 90 % of control (dose: 0.04 mg/kg/injection, schedule: Q01DX009 (ip), vehicle: Klucel (hydroxypropylcellulose) (HPC)); 91 % of control (dose: 0.09 mg/kg/injection, schedule: Q01DX009 (ip), vehicle: Klucel (hydroxypropylcellulose) (HPC)); 86 % of control and 91 % of control (dose: 1.8 mg/kg/injection, schedule: Q01DX009 (ip), vehicle: Klucel (hydroxypropylcellulose) (HPC)); 98 % of control (dose: 7.5 mg/kg/injection, schedule: Q01DX009 (ip), vehicle: Klucel (hydroxypropylcellulose) (HPC)).

With `CCN(C(=O)Nc1ccc(OC)cc1)c1ccccc1C`, the T/C under setting [6] was 102 % of control, the T/C under setting [7] was 102 % of control and the T/C under setting [8] was 102 % of control.

Consider `O=C(N=C1C=CC(=NC(=O)OCc2ccccc2)C=C1)OCc1ccccc1`, for which the T/C by setting is: (dose: 75.0 mg/kg/injection, schedule: Q01DX009 (ip), vehicle: Klucel (hydroxypropylcellulose) (HPC)) 98 % of control; (dose: 150.0 mg/kg/injection, schedule: Q01DX009 (ip), vehicle: Klucel (hydroxypropylcellulose) (HPC)) 92 % of control; (dose: 300.0 mg/kg/injection, schedule: Q01DX009 (ip), vehicle: Klucel (hydroxypropylcellulose) (HPC)) 91 % of control.

Take `CCOc1ccc(NC(=O)Nc2cccc3ccccc23)cc1`: the T/C is 91 % of control under setting [9]; 91 % of control (dose: 3.13 mg/kg/injection, schedule: Q01DX009 (ip), vehicle: Klucel (hydroxypropylcellulose) (HPC)); 86 % of control and 91 % of control under setting [10].

In the case of `O=c1[nH]c(=O)n(C2CC(O)C(CO)O2)cc1I` (centres undefined), the T/C is 106 % of control under setting [11]; 118 % of control under setting [12]; 123 % of control (dose: 100.0 mg/kg/injection, schedule: Q01DX009 (ip), vehicle: saline with Tween-80); 116 % of control (dose: 200.0 mg/kg/injection, schedule: Q01DX009 (ip), vehicle: saline with Tween-80); 120 % of control (dose: 400.0 mg/kg/injection, schedule: Q01DX009 (ip), vehicle: saline with Tween-80); 150 % of control (dose: 800.0 mg/kg/injection, schedule: Q01DX009 (ip), vehicle: saline with Tween-80).

Take `O=C(Nc1ccccc1C(F)(F)F)C(c1ccccc1)c1ccccc1`: the T/C reads like this: (dose: 12.5 mg/kg/injection, schedule: Q01DX009 (ip), vehicle: saline with Tween-80) 101 % of control; under setting [11], 98 % of control; under setting [12], 97 % of control.

On to `Nc1ccccc1SC1CC(=O)N(c2cccc3ccccc23)C1=O` (centres undefined), for which the T/C runs as follows: under setting [9], 98 % of control; under setting [1], 96 % of control; under setting [10], 88 % of control and 94 % of control; under setting [2], 86 % of control; under setting [3], 94 % of control and 96 % of control; under setting [6], 100 % of control. Besides, the T/C is 92 % of control under setting [4], 100 % of control under setting [7], 92 % of control under setting [5] and 93 % of control under setting [8].

For the compound `N=C(N)SCc1cccc2c(=O)cc(-c3ccccc3)oc12`, the T/C by setting is: under setting [13], 101 % of control; under setting [14], 111 % of control; under setting [15], 86 % of control.

Regarding `CC(=O)CC(=O)Nc1ccc(C)c(C)c1`, the T/C was 92 % of control under setting [14]; 89 % of control under setting [15]; 94 % of control (dose: 400.0 mg/kg/injection, schedule: Q01DX009 (ip), vehicle: saline).

With `C[C@@H]1CC[C@]2(C)CC[C@]3(C)C(=CC[C@@H]4[C@@]5(C)CC[C@@H](OC(=O)c6ccc(O)cc6)C(C)(C)[C@@H]5C[C@H](O)[C@]43C)[C@@H]2[C@H]1C(=O)O`, the T/C was 96 % of control (dose: 0.02 mg/kg/injection, schedule: Q01DX009 (ip), vehicle: saline with Tween-80); 91 % of control (dose: 0.05 mg/kg/injection, schedule: Q01DX009 (ip), vehicle: saline with Tween-80); 88 % of control (dose: 0.1 mg/kg/injection, schedule: Q01DX009 (ip), vehicle: saline with Tween-80).

Take `COC(=O)C1(C(=O)OC)C2C(=O)C3C(C21)C3(C(=O)OC(C)(C)C)C(=O)OC(C)(C)C` (centres undefined): the T/C by setting is: under setting [6], 111 % of control; under setting [7], 101 % of control; under setting [8], 98 % of control.

As to `COc1c2c(cc3c1C(Cl)N(C)CC3)OCO2` (centres undefined), the T/C runs as follows: under setting [16], 96 % of control; (dose: 25.0 mg/kg/injection, schedule: Q01DX009 (ip), vehicle: saline) 110 % of control; under setting [13], 106 % of control.

In the case of `C=C(C)[C@@H]1CC[C@]2(CO)CC[C@]3(C)[C@H](CC[C@@H]4[C@@]5(C)CC[C@H](O)C(C)(C)[C@@H]5CC[C@]43C)[C@@H]12`, the T/C reads like this: under setting [3], 99 % of control; under setting [4], 97 % of control; under setting [5], 95 % of control.

For `C/C=C1\C[C@@H]2C(OC)Nc3cc(O)c(OC)cc3C(=O)N2C1` (some centres undefined), the T/C is 100 % of control (dose: 0.03 mg/kg/injection, schedule: Q01DX009 (ip), vehicle: saline); 112 % of control (dose: 0.06 mg/kg/injection, schedule: Q01DX009 (ip), vehicle: saline); 115 % of control (dose: 0.12 mg/kg/injection, schedule: Q01DX009 (ip), vehicle: saline); 105 % of control (dose: 0.12 mg/kg/injection, schedule: Q01DX009 (ip), vehicle: suspension in saline); 112 % of control (dose: 0.25 mg/kg/injection, schedule: Q01DX009 (ip), vehicle: saline); 96 % of control (dose: 0.25 mg/kg/injection, schedule: Q01DX009 (ip), vehicle: suspension in saline). The T/C (dose: 0.5 mg/kg/injection, schedule: Q01DX009 (ip), vehicle: saline) was 115 % of control and the T/C (dose: 0.5 mg/kg/injection, schedule: Q01DX009 (ip), vehicle: suspension in saline) is 96 % of control.

In the case of `NCCCCS(=O)(=O)Nc1ccc(Nc2c3ccccc3nc3cc([N+](=O)[O-])ccc23)cc1`, the T/C reads like this: (dose: 50.0 mg/kg/injection, schedule: Q01DX001 (ip), vehicle: saline sonified) 97 % of control; (dose: 100.0 mg/kg/injection, schedule: Q01DX001 (ip), vehicle: saline sonified) 105 % of control; (dose: 200.0 mg/kg/injection, schedule: Q01DX001 (ip), vehicle: saline sonified) 113 % of control.

On to `CCN(CC)CCCN1c2ccccc2Sc2ccc(Cl)cc21`, for which the T/C runs as follows: (dose: 0.78 mg/kg/injection, schedule: Q01DX009 (ip), vehicle: saline) 91 % of control; (dose: 1.56 mg/kg/injection, schedule: Q01DX009 (ip), vehicle: saline) 104 % of control; (dose: 3.12 mg/kg/injection, schedule: Q01DX009 (ip), vehicle: saline) 102 % of control; (dose: 6.25 mg/kg/injection, schedule: Q01DX009 (ip), vehicle: saline) 93 % of control; under setting [16], 91 % of control.

On to `COc1cccc2c1C(=O)c1c(O)c3c(c(O)c1C2=O)C[C@@](O)(C(=O)CO)C[C@@H]3OC1CC(NC=O)C(O)C(C)O1` (some centres undefined), for which the T/C is, setting by setting: (dose: 1.56 mg/kg/injection, schedule: Q01DX009 (ip), vehicle: other) 118 % of control; (dose: 6.25 mg/kg/injection, schedule: Q01DX009 (ip), vehicle: other) 185 % of control; (dose: 12.5 mg/kg/injection, schedule: Q01DX009 (ip), vehicle: other) 171 % of control and 203 % of control; (dose: 25.0 mg/kg/injection, schedule: Q01DX009 (ip), vehicle: other) 194 % of control; (dose: 50.0 mg/kg/injection, schedule: Q01DX009 (ip), vehicle: other) 198 % of control and 259 % of control; (dose: 100.0 mg/kg/injection, schedule: Q01DX009 (ip), vehicle: other) 259 % of control.
